The values below come from patent US20050067347A1, “Sustainable process for the treatment and detoxification of liquid waste” (priority 2001, published 2005).

The assay concerns Pycnoporus sanguineus MUCL 41582. The assay is described as follows: Laccase activity of fungal culture with inductors. The assay is classed as cell-based. Conditions: for Enzymatic activity: laccase activity, inductor added after 2 days of pre-culture, measured after 5 days of incubation. The method, then: In an example, the inductors NY3, NY5 and RBBR were added to a fungal culture of Pycnoporus sanguineus MUCL 41582 after 2 days of pre-culture. Laccase activity was measured after 5 days of incubation of the culture with the inductors. Results are indicated in the below-given Table 2 and show clearly that laccase activity is enhanced when the fungus is cultured in the presence of inductors.

As to `Nc1c(S(=O)(=O)O)cc(NC2CCCCC2)c2c1C(=O)c1ccccc1C2=O` [NY3], the Enzymatic activity was found to be 3.87 nmol/mL. `Cc1ccc(OS(=O)(=O)Oc2ccc(Nc3cc(S(=O)(=O)O)c(N)c4c3C(=O)c3ccccc3C4=O)cc2)cc1` [NY5]: the Enzymatic activity came to 11.60 nmol/mL. In addition, where the note is “versus culture without inductor”, the “increase of laccase activity” value was “more than 20 fold”. Molecule `Nc1c(S(=O)(=O)[O-])cc(Nc2cccc(S(=O)(=O)CCOS(=O)(=O)[O-])c2)c2c1C(=O)c1ccccc1C2=O.[Na+].[Na+]` [RBBR] displayed an Enzymatic activity of 5.40 nmol/mL.
